Source: ChEMBL document CHEMBL4418486, “Heterocyclic compounds for the inhibition of pask” (2015)

Assay: Half life in Sprague-Dawley rat at 10 mg/kg, po measured after 0.083 to 24 hrs post dose by LC/MS/MS analysis
Type: ADME, organism-based
Settings: in vivo

## CCn1ncc2cc(-c3cc(=O)n4ncc(-c5nc(C)no5)c4[nH]3)ccc21
  half-life: 3.55 h
